In ChEMBL document CHEMBL1133958, “Derivatives of (2R,3R,4S)-2-aminomethylpyrrolidine-3,4-diol are selective alpha-mannosidase inhibitors” (Bioorg Med Chem Lett, 2001):
The source made the active and inactive calls. The rule behind the calls is not given here.

Tests used:
[1] = biological target: T1, Alpha-glucosidase (Oryza sativa Japonica Group) (UniProt Q9LGC6); assay: Percentage inhibition of Alpha-glucosidase from Rice (maltase) at 1 mM; […]
T1 sequence (whole entry): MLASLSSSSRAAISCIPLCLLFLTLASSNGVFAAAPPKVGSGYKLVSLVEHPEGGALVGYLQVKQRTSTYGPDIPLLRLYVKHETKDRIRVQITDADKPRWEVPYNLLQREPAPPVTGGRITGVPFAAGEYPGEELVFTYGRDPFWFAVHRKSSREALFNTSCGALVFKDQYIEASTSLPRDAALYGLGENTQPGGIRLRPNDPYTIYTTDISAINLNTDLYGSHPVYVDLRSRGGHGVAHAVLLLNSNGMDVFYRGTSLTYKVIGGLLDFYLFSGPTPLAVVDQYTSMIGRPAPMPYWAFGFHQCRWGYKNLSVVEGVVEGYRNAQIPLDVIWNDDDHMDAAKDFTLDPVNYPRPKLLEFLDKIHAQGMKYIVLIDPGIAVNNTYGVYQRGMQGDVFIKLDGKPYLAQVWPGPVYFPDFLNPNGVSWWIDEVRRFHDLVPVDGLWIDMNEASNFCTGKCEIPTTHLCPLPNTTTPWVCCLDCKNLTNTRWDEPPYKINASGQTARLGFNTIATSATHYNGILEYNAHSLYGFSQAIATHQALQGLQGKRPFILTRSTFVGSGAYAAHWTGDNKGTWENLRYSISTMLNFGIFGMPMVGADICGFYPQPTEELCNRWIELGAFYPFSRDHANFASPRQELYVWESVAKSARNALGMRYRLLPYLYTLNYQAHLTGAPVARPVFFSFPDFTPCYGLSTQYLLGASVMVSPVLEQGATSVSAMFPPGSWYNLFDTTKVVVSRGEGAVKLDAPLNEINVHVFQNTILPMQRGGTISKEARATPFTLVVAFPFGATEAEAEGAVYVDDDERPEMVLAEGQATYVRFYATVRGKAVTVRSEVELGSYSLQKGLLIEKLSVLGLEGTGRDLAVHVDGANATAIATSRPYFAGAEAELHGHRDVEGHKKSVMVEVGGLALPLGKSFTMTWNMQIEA

Saccharomyces cerevisiae [2] = assay: Percentage inhibition of Alpha-glucosidase from Baker yeast (isomaltase) at 1 mM
Saccharomyces cerevisiae [3] = assay: Percentage inhibition of Alpha-glucosidase from Yeast (maltase) at 1 mM
[4] = biological target: Glucoamylase (Aspergillus niger) (UniProt P69328); assay: Percentage inhibition of Alpha-glucosidase from Aspergillus niger (amyloglucosidase) at 1 mM; No inhibition
[5] = biological target: Beta-glucosidase A (Caldicellulosiruptor saccharolyticus) (UniProt P10482); assay: Percentage inhibition of Beta-Glucosidase from Caldocellum saccharol. at 1 mM
[6] = biological target: T2, Glucoamylase 1 (Rhizopus oryzae) (UniProt P07683); assay: Percentage inhibition of Alpha-glucosidase from Rhizopus mold (amyloglucosidase) at 1 mM concentration; No inhibition; conditions: Rhizopus arrhizus
T2 sequence (whole entry): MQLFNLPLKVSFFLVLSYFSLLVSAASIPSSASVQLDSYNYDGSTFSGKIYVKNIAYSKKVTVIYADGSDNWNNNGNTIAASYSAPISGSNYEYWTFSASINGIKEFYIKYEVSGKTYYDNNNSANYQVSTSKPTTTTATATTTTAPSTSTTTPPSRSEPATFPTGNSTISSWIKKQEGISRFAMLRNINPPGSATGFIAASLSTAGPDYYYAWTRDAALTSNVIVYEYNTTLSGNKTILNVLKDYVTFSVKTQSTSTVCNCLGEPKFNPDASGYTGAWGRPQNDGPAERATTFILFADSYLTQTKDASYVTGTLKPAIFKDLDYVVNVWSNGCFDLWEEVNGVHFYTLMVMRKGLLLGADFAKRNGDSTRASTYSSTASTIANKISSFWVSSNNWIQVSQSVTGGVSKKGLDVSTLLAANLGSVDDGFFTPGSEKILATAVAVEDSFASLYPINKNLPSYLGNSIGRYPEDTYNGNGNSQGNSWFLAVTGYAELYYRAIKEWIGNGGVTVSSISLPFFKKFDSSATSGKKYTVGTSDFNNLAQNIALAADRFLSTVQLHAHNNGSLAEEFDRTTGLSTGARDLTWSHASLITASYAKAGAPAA

[7] = Percentage inhibition of Beta-galactosidase from Aspergillus oryzae at 1 mM; No inhibition
[8] = biological target: T3, Beta-galactosidase (Bos taurus) (UniProt Q58D55); assay: Percentage inhibition of Beta-galactosidase from Bovine liver at 1 mM concentration; No inhibition
T3 sequence (whole entry): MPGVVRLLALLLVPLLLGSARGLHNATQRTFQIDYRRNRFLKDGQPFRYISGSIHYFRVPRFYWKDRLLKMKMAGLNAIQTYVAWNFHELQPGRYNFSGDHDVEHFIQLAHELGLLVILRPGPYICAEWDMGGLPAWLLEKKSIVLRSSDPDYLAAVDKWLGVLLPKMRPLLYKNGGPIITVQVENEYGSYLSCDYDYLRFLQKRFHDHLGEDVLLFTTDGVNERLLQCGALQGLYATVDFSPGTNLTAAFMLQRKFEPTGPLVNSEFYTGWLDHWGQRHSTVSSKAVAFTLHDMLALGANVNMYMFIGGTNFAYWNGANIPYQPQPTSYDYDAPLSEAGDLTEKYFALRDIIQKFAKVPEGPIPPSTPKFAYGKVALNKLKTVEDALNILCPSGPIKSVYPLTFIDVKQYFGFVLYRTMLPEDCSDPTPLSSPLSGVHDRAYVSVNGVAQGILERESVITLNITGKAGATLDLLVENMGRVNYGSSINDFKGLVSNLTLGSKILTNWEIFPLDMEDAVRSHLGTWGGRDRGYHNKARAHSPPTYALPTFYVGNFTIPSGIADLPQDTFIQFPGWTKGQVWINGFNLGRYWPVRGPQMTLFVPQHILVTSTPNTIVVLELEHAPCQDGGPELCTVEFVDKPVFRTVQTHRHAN

[9] = biological target: T4, Beta-galactosidase (Aspergillus niger) (UniProt P29853); assay: Percentage inhibition of Beta-galactosidase from Aspergillus niger at 1 mM concentration
T4 sequence (whole entry): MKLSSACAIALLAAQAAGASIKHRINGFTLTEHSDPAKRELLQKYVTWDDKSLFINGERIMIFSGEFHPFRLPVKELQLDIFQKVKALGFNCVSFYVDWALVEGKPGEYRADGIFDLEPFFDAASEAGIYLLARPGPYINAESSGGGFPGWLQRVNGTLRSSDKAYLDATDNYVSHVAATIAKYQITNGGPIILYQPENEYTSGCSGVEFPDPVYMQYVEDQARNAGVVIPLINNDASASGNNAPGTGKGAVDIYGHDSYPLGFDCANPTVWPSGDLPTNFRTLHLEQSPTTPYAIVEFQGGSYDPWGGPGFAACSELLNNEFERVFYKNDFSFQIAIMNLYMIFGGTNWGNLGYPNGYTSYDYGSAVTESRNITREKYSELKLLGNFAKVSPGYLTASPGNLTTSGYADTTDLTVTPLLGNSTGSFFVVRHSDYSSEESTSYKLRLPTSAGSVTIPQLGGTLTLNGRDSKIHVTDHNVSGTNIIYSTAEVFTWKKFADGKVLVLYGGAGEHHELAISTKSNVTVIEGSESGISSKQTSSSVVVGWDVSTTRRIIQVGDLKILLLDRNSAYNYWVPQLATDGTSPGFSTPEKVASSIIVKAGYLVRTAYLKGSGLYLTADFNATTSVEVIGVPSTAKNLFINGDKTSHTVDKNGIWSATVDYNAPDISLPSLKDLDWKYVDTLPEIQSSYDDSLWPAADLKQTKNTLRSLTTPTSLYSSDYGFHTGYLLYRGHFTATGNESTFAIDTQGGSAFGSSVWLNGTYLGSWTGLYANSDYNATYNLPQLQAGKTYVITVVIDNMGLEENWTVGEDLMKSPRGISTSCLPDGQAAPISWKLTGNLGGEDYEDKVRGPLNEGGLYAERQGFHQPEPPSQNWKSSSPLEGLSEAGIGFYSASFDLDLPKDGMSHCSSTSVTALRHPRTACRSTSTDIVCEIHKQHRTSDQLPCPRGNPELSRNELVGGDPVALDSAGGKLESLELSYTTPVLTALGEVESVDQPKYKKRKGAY

[10] = biological target: Beta-galactosidase (Escherichia coli K-12) (UniProt P00722); assay: Percentage inhibition of Beta-galactosidase from Escherichia coli at 1 mM concentration; No inhibition
[11] = Inhibitory activity towards Alpha-glucosidase from Baker yeast (isomaltase); set-up: species or system Saccharomyces cerevisiae
[12] = tested on: Alpha-mannosidase (Prunus dulcis); assay: Percentage inhibition of Alpha-mannosidase from Almond at 1 mM
Saccharomyces cerevisiae [13] = assay: Percentage inhibition of Alpha-glucosidase from Yeast (maltase) at 1 mM; […]
[14] = biological target: T4, Beta-galactosidase (Aspergillus niger); assay: Percentage inhibition of Beta-galactosidase from Aspergillus niger at 1 mM concentration; […]
[15] = Inhibitory activity towards Alpha-glucosidase from Yeast (maltase); set-up: species or system Saccharomyces cerevisiae
Beta-glucosidase A [16] = biological target: T5, Beta-glucosidase A (Caldicellulosiruptor saccharolyticus, UniProt P10482); assay: Inhibitory activity towards Beta-Glucosidase from Caldocellum saccharol
Beta-glucosidase A [17] = biological target: T5, Beta-glucosidase A; assay: Inhibitory activity towards Beta-Glucosidase from Caldocellum saccharol.
[18] = biological target: Beta-galactosidase (Escherichia coli K-12) (UniProt P00722); assay: Percentage inhibition of Beta-galactosidase from Escherichia coli at 1 mM concentration
[19] = Percentage inhibition of Beta-galactosidase from Aspergillus oryzae at 1 mM
Saccharomyces cerevisiae [20] = assay: Percentage inhibition of Alpha-glucosidase from Baker yeast (isomaltase) at 1 mM; No inhibition
[21] = biological target: Beta-glucosidase A (Caldicellulosiruptor saccharolyticus) (UniProt P10482); assay: Percentage inhibition of Beta-Glucosidase from Caldocellum saccharol. at 1 mM; No inhibition
[22] = biological target: T3, Beta-galactosidase (Bos taurus); assay: Percentage inhibition of Beta-galactosidase from Bovine liver at 1 mM concentration
[23] = Percentage inhibition of Beta-galactosidase from Jack bean at 1 mM concentration; No inhibition; conditions: Canavalia ensiformis

T5 sequence (P10482 whole entry): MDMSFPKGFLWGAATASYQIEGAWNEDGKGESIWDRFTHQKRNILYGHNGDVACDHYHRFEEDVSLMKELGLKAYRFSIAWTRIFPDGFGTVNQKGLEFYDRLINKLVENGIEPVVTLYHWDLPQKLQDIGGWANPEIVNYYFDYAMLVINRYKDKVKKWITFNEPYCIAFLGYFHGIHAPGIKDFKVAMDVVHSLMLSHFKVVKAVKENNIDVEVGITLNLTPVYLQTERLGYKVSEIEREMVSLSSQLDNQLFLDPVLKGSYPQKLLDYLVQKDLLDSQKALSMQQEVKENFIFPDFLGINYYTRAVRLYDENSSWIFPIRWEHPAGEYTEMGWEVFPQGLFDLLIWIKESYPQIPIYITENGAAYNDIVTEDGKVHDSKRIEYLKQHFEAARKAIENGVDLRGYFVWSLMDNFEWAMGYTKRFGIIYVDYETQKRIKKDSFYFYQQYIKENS
Chain of Beta-glucosidase A (Caldicellulosiruptor saccharolyticus) (P10482 whole entry): as above
Chain of Glucoamylase (Aspergillus niger) (P69328 whole entry): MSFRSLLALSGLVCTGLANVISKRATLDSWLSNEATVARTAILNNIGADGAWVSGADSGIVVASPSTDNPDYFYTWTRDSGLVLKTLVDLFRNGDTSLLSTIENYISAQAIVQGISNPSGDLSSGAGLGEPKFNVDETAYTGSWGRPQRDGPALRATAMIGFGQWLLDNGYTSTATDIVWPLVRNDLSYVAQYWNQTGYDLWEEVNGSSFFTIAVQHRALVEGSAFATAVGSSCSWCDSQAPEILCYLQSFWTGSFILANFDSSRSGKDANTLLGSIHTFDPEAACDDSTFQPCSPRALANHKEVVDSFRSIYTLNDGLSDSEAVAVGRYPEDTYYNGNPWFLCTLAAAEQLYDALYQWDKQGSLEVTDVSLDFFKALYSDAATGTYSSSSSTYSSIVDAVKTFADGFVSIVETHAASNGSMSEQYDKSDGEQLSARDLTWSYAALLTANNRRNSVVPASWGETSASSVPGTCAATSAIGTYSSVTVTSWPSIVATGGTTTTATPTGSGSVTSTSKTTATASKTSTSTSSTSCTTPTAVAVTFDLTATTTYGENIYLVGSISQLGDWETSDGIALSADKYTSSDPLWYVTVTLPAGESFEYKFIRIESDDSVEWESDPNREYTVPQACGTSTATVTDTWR
Chain of Beta-galactosidase (Escherichia coli K-12) (P00722 whole entry): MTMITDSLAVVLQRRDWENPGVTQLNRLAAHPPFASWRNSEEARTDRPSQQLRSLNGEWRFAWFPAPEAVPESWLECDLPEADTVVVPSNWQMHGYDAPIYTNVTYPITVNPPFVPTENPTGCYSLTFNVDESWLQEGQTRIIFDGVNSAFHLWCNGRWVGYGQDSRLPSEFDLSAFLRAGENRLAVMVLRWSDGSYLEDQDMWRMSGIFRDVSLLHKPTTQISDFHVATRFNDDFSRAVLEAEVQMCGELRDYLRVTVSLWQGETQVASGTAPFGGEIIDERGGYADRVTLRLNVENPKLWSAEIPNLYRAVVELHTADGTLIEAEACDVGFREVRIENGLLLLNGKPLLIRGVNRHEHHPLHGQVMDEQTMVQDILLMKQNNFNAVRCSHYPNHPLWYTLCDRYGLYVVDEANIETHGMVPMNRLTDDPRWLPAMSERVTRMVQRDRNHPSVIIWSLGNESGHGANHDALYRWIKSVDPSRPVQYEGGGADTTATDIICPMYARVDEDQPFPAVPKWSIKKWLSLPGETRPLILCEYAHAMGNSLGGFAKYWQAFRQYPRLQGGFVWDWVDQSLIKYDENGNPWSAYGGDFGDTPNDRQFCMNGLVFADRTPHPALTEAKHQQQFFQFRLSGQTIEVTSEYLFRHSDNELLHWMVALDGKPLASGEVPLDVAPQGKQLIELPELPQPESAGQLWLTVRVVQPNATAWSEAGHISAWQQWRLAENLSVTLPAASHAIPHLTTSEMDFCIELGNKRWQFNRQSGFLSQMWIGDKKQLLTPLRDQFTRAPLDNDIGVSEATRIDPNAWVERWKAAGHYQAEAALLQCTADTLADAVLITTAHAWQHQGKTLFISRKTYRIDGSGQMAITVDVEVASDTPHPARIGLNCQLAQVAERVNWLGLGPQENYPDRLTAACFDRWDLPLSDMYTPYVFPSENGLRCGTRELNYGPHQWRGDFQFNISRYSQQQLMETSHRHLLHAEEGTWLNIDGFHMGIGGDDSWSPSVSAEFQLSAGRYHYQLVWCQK

| inhibition [1] | inhibition (Saccharomyces cerevisiae [2]) [%] | inhibition (Saccharomyces cerevisiae [3]) [%] | inhibition [4] | inhibition [5] [%] | inhibition [6] | inhibition [7] | inhibition [8] | inhibition [9] [%] | inhibition [10] | IC50 [11] [µM] | Ki [11] [µM] | inhibition [12] [%] | inhibition (Saccharomyces cerevisiae [13]) | inhibition [14] | inhibition [18] [%] | inhibition (Saccharomyces cerevisiae [20]) | inhibition [23] | other results | Compound |
| --- | --- | --- | --- | --- | --- | --- | --- | --- | --- | --- | --- | --- | --- | --- | --- | --- | --- | --- | --- |
| inactive | 92 | 30 | inactive | 29 | inactive | inactive | inactive | 26 | inactive | 170 | 71 | 53 |  |  |  |  |  |  | OC1CNC(CNC2CCCC2)C1O (stereo not given) |
| inactive | 23 |  | inactive | 38 | inactive | inactive | inactive |  | inactive |  |  | 68 | inactive | inactive |  |  |  |  | OC1CNC(CNCc2cccs2)C1O (stereo not given) |
| inactive | 90 | 55 | inactive | 76 | inactive |  | inactive | 41 |  | 120 | 40 | 59 |  |  | 49 |  |  | IC50 [15]: 610 µM; Ki (Beta-glucosidase A [16]): 120 µM; IC50 (Beta-glucosidase A [17]): 290 µM; inhibition [19]: 24% | OC1CNC(CNCn2ccnc2)C1O (stereo not given) |
| inactive |  |  | inactive |  | inactive | inactive |  |  |  |  |  |  | inactive | inactive | 24 | inactive |  | inhibition [21]: inactive; inhibition [22]: 26% | OC1CNC(CNCc2ccccc2)C1O (stereo not given) |
| inactive |  |  | inactive | 40 | inactive | inactive |  |  | inactive |  |  |  | inactive | inactive |  | inactive | inactive | inhibition [22]: 32% | OCC(O)[C@H]1NC[C@H](O)[C@@H]1O (stereo not given in full) |
| inactive | 34 |  | inactive | 49 | inactive | inactive | inactive |  |  |  |  | 48 | inactive | inactive | 34 |  |  |  | C[C@@H](NCC1NCC(O)C1O)c1ccccc1 (stereo not given in full) |
| inactive | 33 |  | inactive | 43 | inactive | inactive | inactive |  | inactive |  |  |  | inactive | inactive |  |  | inactive |  | CC(=O)N(Cc1ccccc1)CC1NCC(O)C1O (stereo not given) |
| inactive |  |  | inactive |  | inactive | inactive | inactive |  | inactive |  |  |  | inactive | inactive |  | inactive | inactive | inhibition [21]: inactive | OC1CNC(CCNc2ccccc2)C1O (stereo not given) |
| inactive | 94 | 66 | inactive | 75 | inactive | inactive | inactive | 39 | inactive | 65 | 45 | 29 |  |  |  |  |  | IC50 [15]: 280 µM; Ki (Beta-glucosidase A [16]): 60 µM; IC50 (Beta-glucosidase A [17]): 250 µM | OC1CNC(CNCc2ccco2)C1O (stereo not given) |
